Data published in paper PMC6848745 (Psychopharmacology, 2018).

Columns and labels:
[1] = test system: rats trained to discriminate saline from LSD; conditions: ref Huang et al. 1994, cited from earlier work; for potency in rats trained to discriminate saline from LSD: rat drug discrimination
[2] = test system: 5-HT2A sites labeled with [3H]ketanserin; conditions: rat frontal cortex / forebrain homogenate; ref Huang et al. 1994; cited from earlier work
C57BL/6J mice [3] = assay: Head twitch response; format: in vivo, mouse; conditions: for ED50, nmol/kg (95% CI) / ED50, μg/kg (95% CI): IP
human subjects = conditions: cited from earlier work
C57BL/6J mice [4] = conditions: HTR under equivalent conditions; ref Halberstadt and Geyer 2013; cited from earlier work
H1 receptors = conditions: ref Nichols et al. 2002; Rickli et al. 2015; cited from earlier work
[125I]DOI-labeled sites [5] = read-out: Ki at [125I]DOI-labeled sites; ref Huang et al. 1994; cited from earlier work
α2-adrenoceptors = conditions: [3H]clonidine, rat cortex; ref Leysen 1989; Marona-Lewicka and Nichols 1995; cited from earlier work
β1 = conditions: ref Nichols et al. 2002; cited from earlier work
β2 = conditions: ref Nichols et al. 2002; cited from earlier work
[125I]DOI-labeled sites [6] = Binding to [125I]DOI-labeled sites; parameters: species or system rat; conditions: from Ki values of Huang et al. 1994
[7] = first 20-min of the test session

CCN(C(=O)[C@@H]1C=C2c3cccc4[nH]cc(c34)C[C@H]2N(C)C1)C(C)C [EIPLA, N-ethyl-N-isopropyl lysergamide]
fold lower potency than LSD in the rat drug discrimination paradigm [1]: ~3 fold
fold lower affinity than LSD at [3H]ketanserin-labeled 5-HT2A sites [2]: three-fold

CCCN(C)C(=O)[C@@H]1C=C2c3cccc4[nH]cc(c34)C[C@H]2N(C)C1 [LAMPA, N-methyl-N-propyl lysergamide]
HTR Counts (Mean ± SEM) (C57BL/6J mice [3]; 0.1 mg/kg IP, 20 min): 15.8 ± 2.7
HTR Counts (Mean ± SEM) (C57BL/6J mice [3]; 0.3 mg/kg IP, 20 min): 31.0 ± 2.2
HTR Counts (Mean ± SEM) (C57BL/6J mice [3]; 1 mg/kg IP, 20 min): 19.5 ± 3.2
HTR Counts (Mean ± SEM) (C57BL/6J mice [3]; 3 mg/kg IP, 20 min): 7.4 ± 4.3
ED50, nmol/kg (95% CI) (C57BL/6J mice [3]; [7]): 358.3 (241.1–532.4) nmol/kg
ED50, μg/kg (95% CI) (C57BL/6J mice [3]; [7]): 115.9 (78.0–172.2) μg/kg
effect in hallucinogen-experienced subjects (human subjects; 100 μg p.o., six subjects, ref Abramson and Rolo 1967): no effect in four subjects and produced effects consistent with a threshold dose of LSD in two subjects

CCN(CC)C(=O)[C@@H]1C=C2c3cccc4[nH]cc(c34)C[C@H]2N(C)C1 [LSD, (+)-Lysergic acid diethylamide]
ED50 (C57BL/6J mice [4]): 132.8 nmol/kg
Ki (H1 receptors): 1100 to 1500 nM
potency in rats trained to discriminate saline from LSD [1]: 0.021 mg/kg
Ki ([125I]DOI-labeled sites [5]): 1.43 nM
typical oral doses (human subjects; oral, humans, ref Shulgin and Shulgin 1997): 60 to 200 µg
Ki (α2-adrenoceptors): 37 to 82 nM
Ki (β1): 140 nM
Ki (β2): 740 nM

CC(C)N(C)C(=O)[C@@H]1C=C2c3cccc4[nH]cc(c34)C[C@H]2N(C)C1 [MIPLA, N-methyl-N-isopropyl lysergamide]
HTR Counts (Mean ± SEM) (C57BL/6J mice [3]; 0.1 mg/kg IP, 30 min): 12.3 ± 1.1
HTR Counts (Mean ± SEM) (C57BL/6J mice [3]; 0.2 mg/kg IP, 30 min): 31.8 ± 1.9
HTR Counts (Mean ± SEM) (C57BL/6J mice [3]; 0.4 mg/kg IP, 30 min): 26.6 ± 3.1
ED50, nmol/kg (95% CI) (C57BL/6J mice [3]; entire 30-min test session): 421.7 (360.5–493.1) nmol/kg
ED50, μg/kg (95% CI) (C57BL/6J mice [3]; entire 30-min test session): 136.4 (116.6–159.5) μg/kg
affinity relative to LSD at [125I]DOI-labeled sites ([125I]DOI-labeled sites [6]): about 82%
potency in rats trained to discriminate saline from LSD [1]: 0.036 mg/kg
fold lower affinity than LSD at [3H]ketanserin-labeled 5-HT2A sites [2]: 6 fold
Ki ([125I]DOI-labeled sites [5]): 1.75 nM
doses producing LSD-like psychedelic effects (human subjects; human subjects, ref Shulgin 2016): 180 to 300 µg
potency as a psychedelic in man relative to LSD (human subjects; ref Shulgin 2016): one-third
